From the NIST ThermoML archive (doi:10.1021/je049893r)

Settings: Liquid, Vibrating tube method

CCCOCC(C)O (centres undefined) [1-propoxy-2-propanol]
mass density [kg/m3]
Settings	100 kPa	1000 kPa	2500 kPa	5000 kPa	7500 kPa	10000 kPa	15000 kPa	20000 kPa	25000 kPa
283.15 K	895.1	895.7	896.7	898.5	900.1	901.8	905	908.1	911.1
293.15 K	886	886.6	887.7	889.6	891.3	893.1	896.5	899.8	902.9
303.15 K	876.4	877.2	878.4	880.3	882.2	884	887.6	891.1	894.4
313.15 K	866.9	867.6	868.9	871	873	875	878.8	882.4	885.9
323.15 K	857.2	858	859.3	861.4	863.5	865.6	869.6	873.5	877.2
333.15 K	847.1	847.9	849.3	851.7	853.9	856.1	860.3	864.3	868.1
343.15 K	837.5	838.4	840	842.4	844.9	847.2	851.8	856	860.1
353.15 K	827.3	828.3	829.9	832.6	835.2	837.7	842.5	847	851.3

CCCCOCCOCCO [3,6-dioxa-1-decanol]
mass density [kg/m3]
Settings	100 kPa	1000 kPa	2500 kPa	5000 kPa	7500 kPa	10000 kPa	15000 kPa	20000 kPa	25000 kPa
283.15 K	960.5	961	961.9	963.4	964.9	966.3	969.1	971.8	974.4
293.15 K	952.2	952.7	953.7	955.2	956.7	958.2	961.1	963.9	966.7
303.15 K	943.8	944.3	945.3	946.9	948.5	950.1	953.1	956.1	959
313.15 K	935.3	935.9	936.9	938.6	940.3	941.9	945.1	948.2	951.2
323.15 K	926.6	927.2	928.3	930.1	931.8	933.5	936.9	940.1	943.2
333.15 K	917.8	918.5	919.7	921.6	923.4	925.2	928.7	932	935.2
343.15 K	909.7	910.4	911.6	913.6	915.5	917.4	921.1	924.6	928
353.15 K	900.9	901.7	903	905	907.1	909.1	912.9	916.6	920.1
